{
  "source": "patent US7094557B2",
  "about": "“2-Methyl-3-butenyl-1-pyrophosphoric acid salt and agent for treating lymphocytes” (Chugai Seiyaku Kabushiki Kaisha, priority 1999, dated 2006)",
  "key": {"[1]": {"system": "Vγ2Vδ2 type T cells", "settings": "prior art; cited from earlier work"}, "[2]": {"system": "normal peripheral blood cells of A", "settings": "treated peripheral bloods of A (after freezing and thawing) and F on normal peripheral blood cells of A", "experimental": "In Test examples, treatment of the peripheral blood by 2-methyl-3-butenyl-1-pyrophosphoric acid or by a salt thereof was conducted as follows unless otherwise specified. Lymphocytes contained in the peripheral blood derived from healthy volunteer were treated so that the final concentration of the pyrophosphoric acid compound was 20 μM, and cultured in a Yssel's medium under conditions of temperature at 37° C. and a carbon dioxide concentration of 5%. […] After 12 days, the cells were collected."}, "[3]": {"system": "human Vγ2Vδ2 type T cells", "assay": "Proliferation of Vγ2Vδ2 type T cells in treated peripheral blood mononuclear cells (ratio in CD3 cells)", "assay_type": "cell-based", "settings": "day 11, peripheral blood mononuclear cells of volunteer G", "protocol": "After 12 days, the cells were collected.\n10 ml of the peripheral blood collected from a healthy volunteer G was subjected to Ficoll-Paque specific gravity centrifugation to purify the peripheral blood mononuclear cells and they were suspended in a Yssel's medium. The cells were apportioned into a 24-hole plate so that the number of the cells becomes a concentration of 2.5 million/1.5 ml/hole, and then, according to the above-mentioned method, treatments 1 to 5 were conducted as shown in Table 1. […] On the day 11 after conducting the treatment, a ratio of Vγ2Vδ2 type T cells in existing CD3 cells was calculated."}, "[4]": {"settings": "for Stable preservation time in solution: neutral aqueous solution"}, "[5]": {"system": "human Vγ2Vδ2 type T cell clones"}},
  "note": "Read-outs that look alike come from different tables or passages of the source.",
  "data": [
    {"smiles": "C=C(C)CCOP(=O)(O)OP(=O)(O)O", "note": "[isopentenyl pyrophosphoric acid]", "values": [
      {"measurement": "Concentration required to activate Vγ2Vδ2 type T cells", "setting": "[1]", "result": "several hundreds of μM to several mM"}
    ]},
    {"smiles": "CCOP(=O)(O)O", "note": "[mono ethyl phosphoric acid]", "values": [
      {"measurement": "Concentration required to activate Vγ2Vδ2 type T cells", "setting": "[1]", "result": "several hundreds of μM to several mM"}
    ]},
    {"smiles": "C=CC(C)COP(=O)([O-])OP(=O)([O-])[O-].[Na+].[Na+].[Na+]", "note": "(centres unmarked) [sodium salt of 2-methyl-3-butenyl-1-pyrophosphoric acid]", "values": [
      {"measurement": "Cytotoxicity of treated Vγ2Vδ2 type T cells on normal cells", "setting": "[2]", "result": "do not attack the normal cells"},
      {"measurement": "Vγ2Vδ2 type T cells/CD3 cells", "setting": "[3]; 2 μM sodium salt + interleukin-2 10 U/ml", "result": 58.3, "unit": "%"},
      {"measurement": "Vγ2Vδ2 type T cells/CD3 cells", "setting": "[3]; 20 μM sodium salt + interleukin-2 10 U/ml", "result": 85.5, "unit": "%"},
      {"measurement": "Vγ2Vδ2 type T cells/CD3 cells", "setting": "[3]; 200 μM sodium salt + interleukin-2 10 U/ml", "result": 94.5, "unit": "%"},
      {"measurement": "Dissociation of inorganic pyrophosphoric acid", "setting": "[4]; acidic range of pH 4 or less", "result": "observed within a few minutes"},
      {"measurement": "Stable preservation time in solution", "setting": "[4]; pH 6 to 7, room temperature", "result": "more than one week"},
      {"measurement": "Stable preservation time in solution", "setting": "[4]; pH 6 to 7, −20° C.", "result": "more than one year"},
      {"measurement": "Amount in whose presence the human Vγ2Vδ2 type T cells proliferate", "setting": "[5]", "result": "several hundreds μM"},
      {"measurement": "Amount that can stimulate the cells", "setting": "[5]; human Vγ2Vδ2 type T cell clones", "result": "several hundreds nM to several tens μM"}
    ]}
  ]
}
